Counter-ions that a name gives are not always drawn. Where only a bound is given, the exact number is not on record here.

One data set concerns the target T1, human alpha 1a adrenergic receptor (Homo sapiens, UniProt P35348).
T1 sequence (P35348 1-466): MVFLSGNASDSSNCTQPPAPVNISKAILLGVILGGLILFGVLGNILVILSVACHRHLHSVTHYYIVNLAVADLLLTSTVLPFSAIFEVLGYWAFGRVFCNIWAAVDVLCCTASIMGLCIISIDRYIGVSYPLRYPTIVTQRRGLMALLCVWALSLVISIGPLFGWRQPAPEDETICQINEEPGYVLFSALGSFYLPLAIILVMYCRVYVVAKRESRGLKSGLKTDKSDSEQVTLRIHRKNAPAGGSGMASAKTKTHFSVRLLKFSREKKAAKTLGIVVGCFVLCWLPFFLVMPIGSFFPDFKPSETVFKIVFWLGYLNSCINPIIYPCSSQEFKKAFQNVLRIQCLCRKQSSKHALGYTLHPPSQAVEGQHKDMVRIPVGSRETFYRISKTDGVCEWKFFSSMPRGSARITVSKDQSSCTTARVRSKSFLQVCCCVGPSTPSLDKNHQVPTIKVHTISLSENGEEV
The data set is described as follows: Screening assay: alpha 1a adrenergic receptor binding ([125I]-HEAT competition). Conditions: membranes from stably transfected human alpha 1a cell line (ATCC CRL 11140), 100 pM [125I]-HEAT. Here is the method: Screening Assay: Alpha 1a Adrenergic Receptor Binding
These competition binding reactions (total volume=200 μl) contained 50 mM Tris-HCl pH. […] Reactions were incubated at room temperature for one hour with shaking. Reactions were filtered onto Whatman GF/C glass fiber filters with a Inotec 96 well cell harvester. Filters were washed three times with ice cold buffer and bound radioactivity was determined (Ki).
The Ki is a measure of affinity in units of concentration, obtained from inhibition or displacement. Higher therefore signals lower affinity. Regarding `Cc1ccc(C2(c3ccccn3)NC(=O)N(CCCN3CCC(C#N)(c4ccccc4C)CC3)C2=O)cc1` (racemic) [Compound 13, (+/−)-3-{3-[4-(2-methylphenyl)-4-cyanopiperidin-1-yl]propyl}-5-(4-methylphenyl)-5-(2-pyridyl)-imidazolin-2,4-dione], the Ki is less than 0.02 µM.
The same measure, in the same setting: the figure for `Cc1ccc(C2(c3ccc(C)cc3)NC(=O)N(CCCN3CCN(c4ccccc4C(N)=O)CC3)C2=O)cc1` [Compound 25, 3-{3-[4-(2-aminocarbonylphenyl)-piperazin-1-yl]propyl}-5,5-bis(4-methylphenyl)-imidazolin-2,4-dione dihydrochloride] is less than 0.02 µM; for `Cc1ccc(C2(c3ccc(C)cc3)NC(=O)N(CCCN3CCC(C#N)(c4ccccc4)CC3)C2=O)cc1` [Compound 1, 3-[3-(4-Phenyl-4-cyanopiperidin-1-yl)propyl]-5,5-bis(4-methylphenyl)-imidazolin-2,4-dione] it is less than 0.02 µM; for `Cc1ccc(C2(c3ccc(C)cc3)NC(=O)N(CCCCN3CCC4(C=Cc5ccccc54)CC3)C2=O)cc1` [Compound 28, 3-{4-(spiro[indeno-1,4′-piperidin]-1′-yl)butyl}-5,5-bis(4-methylphenyl)-imidazolin-2,4-dione] it is less than 0.02 µM.
Still for that read-out and setting: to `Cc1ccc(C2(c3ccc(C)cc3)NC(=O)N(CCCN3CCC(c4ccccn4)CC3)C2=O)cc1` [Compound 3, 3-{3-[4-(2-Pyridyl)piperidin-1-yl]propyl}-5,5-bis(4-methylphenyl)-imidazolin-2,4-dione] belongs less than 0.02 µM.
Still for that read-out and setting: the figure for `Cc1ccc(C2(c3ccc(C)cc3)NC(=O)N(CCCN3CCC4(CC3)OC(=O)Nc3ccc(F)cc34)C2=O)cc1` [Compound 23, 3-{3-(6-fluoro-spiro[4H-3,1-benzoxazine4,4′-piperidin]-2(1H)-on-1′-yl)propyl}bis(4-methylphenyl)-imidazolin-2,4-dione] is less than 0.02 µM; for `CN1C(=O)OC2(CCN(CCCN3C(=O)NC(c4ccc(Cl)cc4)(c4ccc(Cl)cc4)C3=O)CC2)c2cc(Cl)ccc21` [Compound 14, 3-{3-(1-methyl-6-chloro-spiro[4H-3,1-benzoxazine-4,4′-piperidin]-2(1H)-on-1′-yl)propyl}1-5,5-bis(4-chlorophenyl)-imidazolin-2,4-dione] it is less than 0.02 µM; for `Cc1ccc(C2(c3ccc(C)cc3)NC(=O)N(CCCN3CCC4(CC3)C(=O)Cc3ccccc34)C2=O)cc1` [Compound 5, 3-{3-(2,3-dihydro-spiro[indeno-1,4′-piperidin]-2(3H)-on-1′-yl)propyl}-5,5-bis(4-methylphenyl)-imidazolin-2,4-dione] it is less than 0.02 µM.
In the case of `Cc1ccc(C2(c3ccc(C)cc3)NC(=O)N(CCCN3CCC(c4ccc(F)cc4C#N)CC3)C2=O)cc1` [Compound 26], the Ki is less than 0.02 µM.
On the same count and under the same terms, to `Cc1ccc(C2(c3ccc(C)cc3)C(=O)N(CCCN3CCC(C#N)(c4ccccc4C)CC3)C(=O)N2C)cc1` [Compound 36, 1-Methyl-3-{3-[4-(2-methylphenyl)-4-cyanopiperidin-1-yl]propyl}-bis-5,5-(4-methylphenyl)-imidazolin-2,4-dione] belongs less than 0.02 µM.
On the same count and under the same terms, to `Cc1ccc(C2(c3ccc(C)cc3)NC(=O)N(CCCN3CCC4(CC3)OC(=O)N(C)c3ccc(Cl)cc34)C2=O)cc1` [Compound 8, 3-{3-(1-methyl-6-chloro-spiro[4H-3,1-benzoxazine-4,4′-piperidin]-2(1H)-on-1′yl)propyl}5,5-bis(4-methylphenyl)-imidazolin-2,4-dione] belongs less than 0.02 µM; to `Cc1ccc(C2(c3ccc(C)cc3)NC(=O)N(CCCN3CCN(c4ccccc4C#N)CC3)C2=O)cc1` [Compound 27, 3-{3-[4-(2-cyanophenyl)-piperazin-1-yl]propyl}-5,5-bis(4-methylphenyl)-imidazolin-2,4-dione hydrochloride], less than 0.02 µM.
Still for that read-out and setting: to `Cc1ccc(C2(c3ccc(C)cc3)NC(=O)N(CCCN3CCC4(CC3)C(=O)Nc3ccccc34)C2=O)cc1` [Compound 21, 3-{3-(spiro[3H-indole-3,4′-piperidin]-2(1H)-on-1′-yl)propyl}-5,5-bis(4-methylphenyl)-imidazolin-2,4-dione hydrochloride] belongs less than 0.02 µM; to `Cc1ccc(C2(c3ccc(C)cc3)NC(=O)N(CCCN3CCC4(CC3)OC(=O)Nc3ccccc34)C2=O)cc1` [Compound 6, 3-{3-(spiro[4H-3,1-benzoxazine-4,4′-piperidin]-2(1H)-on-1′-yl)propyl}-5,5-bis(4-methylphenyl)-imidazolin-2,4-dione], less than 0.02 µM.
As to `CCCCCC1(c2ccc(C)cc2)NC(=O)N(CCCN2CCC(C#N)(c3ccccc3C)CC2)C1=O` (racemic) [Compound 16], the Ki is less than 0.02 µM.
`Cc1ccc(C2(c3ccc(C)cc3)NC(=O)N(CCCN3CCC4(C=Cc5ccccc54)CC3)C2=O)cc1` [Compound 4, 3-{3-(spiro[1H-indeno-1,4′-piperidin]-1′-yl)propyl}-5,5-bis(4-methylphenyl)-imidazolin-2,4-dione]: the Ki is less than 0.02 µM.
The compound `Cc1ccccc1C1(C#N)CCN(CCCN2C(=O)NC(c3ccc(F)cc3)(c3ccc(F)cc3)C2=O)CC1` [Compound 12, 3-{3-[4-(2-methylphenyl)-4-cyanopiperidin-1-yl]propyl}-5,5-bis(4-fluorophenyl)-imidazolin-2,4-dione hydrochloride] came in with an inhibitory constant (Ki) of less than 0.02 µM.
Same read-out and setting: the figure for `CCCCCC1(c2ccc(F)c(F)c2)NC(=O)N(CCCN2CCC(C#N)(c3ccccc3C)CC2)C1=O` (racemic) [Compound 17, (+/−)-3-{3-[4-(2-methylphenyl)-4-cyanopiperidin-1-yl]propyl}-5-pentyl-5-(3,4-difluoro-phenyl)-imdazolin-2,4-dione hydrochloride] is less than 0.02 µM; for `Cc1ccc(C2(c3ccc(C)cc3)NC(=O)N(CCCN3CCC4(CC3)OC(=O)Nc3ccc(Cl)cc34)C2=O)cc1` [Compound 7, 3-{3-(6-chloro-spiro[4H-3,1-benzoxazine-4,4′-piperidin]-2(1H)-on-1′-yl)propyl}-5,5-bis(4-methylphenyl)-imidazolin-2,4-dione] it is less than 0.02 µM.
Same read-out and setting: to `Cc1ccc(C2(c3ccc(C)cc3)NC(=O)N(CCCN3CCC4(CC3)OC(=O)N(C)c3ccccc34)C2=O)cc1` [Compound 9] belongs less than 0.02 µM; to `Cc1ccc(C2(c3ccc(C)cc3)NC(=O)N(CCCN3CCC4(CC3)OC(=O)N(CC(F)(F)F)c3ccc(Cl)cc34)C2=O)cc1` [Compound 29, 3-{3-[1-(2,2,2-trifluoroethyl)-6-chloro-spiro[4H-3,1-benzoxazine-4,4′-piperidin]-2(1H)-on-1′-yl]propyl}-5,5-bis(4-methylphenyl)-imidazolin-2,4-dione], less than 0.02 µM; to `N#CC1(c2ccccc2)CCN(CCCN2C(=O)NC(c3ccc(Cl)cc3)(c3ccc(Cl)cc3)C2=O)CC1` [Compound 10, 3-{3-[4-phenyl-4-cyanopiperidin-1-yl]propyl}-5,5-bis(4-chlorophenyl)-imidazolin-2,4-dione hydrochloride], less than 0.02 µM.
Turning to `Cc1ccc(C2(C(C)C)NC(=O)N(CCCN3CCC(C#N)(c4ccccc4C)CC3)C2=O)cc1` (racemic) [Compound 31, (+/−)-3-{3-[4-(2-methylphenyl)4-cyanopiperidin-1-yl]propyl}-5-isopropyl-5-(4-methylphenyl)-imidazolin-2,4-dione hydrochloride], the Ki is less than 0.02 µM.
Still for that read-out and setting: to `Cc1ccc(C2(c3ccccc3)NC(=O)N(CCCN3CCC(C#N)(c4ccccc4)CC3)C2=O)cc1` (racemic) [Compound 11, (+/−)-3-{3-[4-phenyl4-cyanopiperidin-1-yl]propyl-}5-(4-methylphenyl)-5-phenyl-imidazolin-2,4-dione trifluoroacetate] belongs less than 0.02 µM.

Tested on in a further data set: not given
Experiment: not given
Settings: not given
In general, melting point refers to the temperature, or range, at which the solid turns liquid. `Cc1ccc(C2(c3ccc(C)cc3)NC(=O)N(CCCN3CCC4(CC3)C(=O)Nc3ccccc34)C2=O)cc1` (as salt: hydrochloride) [Compound 21, 3-{3-(spiro[3H-indole-3,4′-piperidin]-2(1H)-on-1′-yl)propyl}-5,5-bis(4-methylphenyl)-imidazolin-2,4-dione hydrochloride] displayed a melting point of more than 210 °C.
`COCN1C(=O)N(CCCN2CCC(C#N)(c3ccccc3C)CC2)C(=O)C1(c1ccc(C)cc1)c1ccc(C)cc1` yielded a melting point of 53 to 55 °C.
For `CCOC(=O)CN1C(=O)N(CCCN2CCC(C#N)(c3ccccc3C)CC2)C(=O)C1(c1ccc(C)cc1)c1ccc(C)cc1` [Compound 35, 1 -Ethoxycarbonylmethyl-3-{3-[4-(2-methylphenyl)-4-cyanopiperidin-1-yl]propyl}bis-5,5-(4-methylphenyl)-imidazolin-2,4-dione], the melting point is 63 to 65 °C.
In the case of `Cc1ccc(C2(c3ccc(C)cc3)NC(=O)N(CCCN3CCN(c4ccccc4C(N)=O)CC3)C2=O)cc1` (as salt: hydrochloride) [Compound 25, 3-{3-[4-(2-aminocarbonylphenyl)-piperazin-1-yl]propyl}-5,5-bis(4-methylphenyl)-imidazolin-2,4-dione dihydrochloride], the melting point was in the range of 160 to 163 °C.
On the same count and under the same terms, the figure for `CC1(c2ccccc2)NC(=O)N(CCCN2CCC(C#N)(c3ccccc3)CC2)C1=O` (racemic) (as salt: hydrochloride) is 222 to 223 °C.
